Experimental findings from patent publication US20260092071A1, “COMPOUNDS AND COMPOSITIONS AS SMARCA2/4 DEGRADERS AND USES THEREOF” (REGENTS OF THE UNIVERSITY OF MICHIGAN, priority 2022, published 2026) are described below.

For orientation: DC50 means the midpoint of the concentration-degradation curve. For orientation: Dmax means the greatest extent of degradation seen.

One assay deals with SMARCA4 (Homo sapiens, UniProt P51532). Put plainly: HiBiT assay for protein degradation, Hela SMARCA4-HiBiT cells (A series). It is filed as cell-based. On the set-up: fuse HiBiT to the carboxy terminus of SMARCA2 (Promega CS302365) or SMARCA4 (Promega CS3023225); host or cells: HeLa (CRISPR/Cas9 HiBiT knock-in). The conditions noted are these: for DC50: read-out: SMARC A4 Hela HiBit DC50. The procedure, abridged:
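HeLa cells engineered by CRISPR/Cas9 to carry a HiBiT tag fused to the C-terminus of SMARCA4 (Promega CS3023225) were grown in DMEM supplemented with FBS and penicillin-streptomycin. After compound exposure, remaining SMARCA4 protein was quantified using the Nano-Glo® HiBiT Lytic Detection Assay (Promega N3050), and curves were fitted in GraphPad Prism.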

A further assay concerns the target SMARCA2 (Homo sapiens, UniProt P51531). Put plainly: HiBiT assay for protein degradation, Hela SMARCA2-HiBiT cells (A series).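 On SMARC A2 Hela HiBit Dmax (%): 24 h compound treatment.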 It is filed as cell-based. On the set-up: Hela cells were genetically modified via CRISPR/Cas9 to fuse HiBiT to the carboxy terminus of SMARCA2; host or cells: HeLa (CRISPR/Cas9 HiBiT knock-in). The conditions noted are these: for DC50: read-out: SMARC A2 Hela HiBit DC50; for Dmax: read-out: SMARC A2 Hela HiBit Dmax (%). The procedure, abridged: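 HeLa cells engineered by CRISPR/Cas9 to carry a HiBiT tag fused to the C-terminus of SMARCA2 (Promega CS302365) were grown in DMEM supplemented with FBS and penicillin-streptomycin. After treatment, remaining SMARCA2 protein was quantified with the Nano-Glo® HiBiT Lytic Detection Assay (Promega N3050), and curves were fitted in GraphPad Prism.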
(HiBiT is a short tag that completes a luciferase, so light tracks the accessible tagged protein.)

The mark [1] stands for this setting: Hela SMARCA4-HiBiT cells, 24 hours treatment.
Where [2] appears, read: Hela SMARCA2-HiBiT cells, 24 hours treatment.
The mark [3] stands for this setting: Hela SMARCA4-HiBiT cells, 24 hours treatment, read-out: SMARC A4 Hela HiBit Dmax.
Setting [4] is: Hela SMARCA4-HiBiT cells, 24 hours treatment, read-out: SMARC A4 Hela HiBit Dmax(%).

Read-outs that look alike come from different tables or passages of the source.

SMARCA2, sequence (P51531 whole entry, the tested form may be a part): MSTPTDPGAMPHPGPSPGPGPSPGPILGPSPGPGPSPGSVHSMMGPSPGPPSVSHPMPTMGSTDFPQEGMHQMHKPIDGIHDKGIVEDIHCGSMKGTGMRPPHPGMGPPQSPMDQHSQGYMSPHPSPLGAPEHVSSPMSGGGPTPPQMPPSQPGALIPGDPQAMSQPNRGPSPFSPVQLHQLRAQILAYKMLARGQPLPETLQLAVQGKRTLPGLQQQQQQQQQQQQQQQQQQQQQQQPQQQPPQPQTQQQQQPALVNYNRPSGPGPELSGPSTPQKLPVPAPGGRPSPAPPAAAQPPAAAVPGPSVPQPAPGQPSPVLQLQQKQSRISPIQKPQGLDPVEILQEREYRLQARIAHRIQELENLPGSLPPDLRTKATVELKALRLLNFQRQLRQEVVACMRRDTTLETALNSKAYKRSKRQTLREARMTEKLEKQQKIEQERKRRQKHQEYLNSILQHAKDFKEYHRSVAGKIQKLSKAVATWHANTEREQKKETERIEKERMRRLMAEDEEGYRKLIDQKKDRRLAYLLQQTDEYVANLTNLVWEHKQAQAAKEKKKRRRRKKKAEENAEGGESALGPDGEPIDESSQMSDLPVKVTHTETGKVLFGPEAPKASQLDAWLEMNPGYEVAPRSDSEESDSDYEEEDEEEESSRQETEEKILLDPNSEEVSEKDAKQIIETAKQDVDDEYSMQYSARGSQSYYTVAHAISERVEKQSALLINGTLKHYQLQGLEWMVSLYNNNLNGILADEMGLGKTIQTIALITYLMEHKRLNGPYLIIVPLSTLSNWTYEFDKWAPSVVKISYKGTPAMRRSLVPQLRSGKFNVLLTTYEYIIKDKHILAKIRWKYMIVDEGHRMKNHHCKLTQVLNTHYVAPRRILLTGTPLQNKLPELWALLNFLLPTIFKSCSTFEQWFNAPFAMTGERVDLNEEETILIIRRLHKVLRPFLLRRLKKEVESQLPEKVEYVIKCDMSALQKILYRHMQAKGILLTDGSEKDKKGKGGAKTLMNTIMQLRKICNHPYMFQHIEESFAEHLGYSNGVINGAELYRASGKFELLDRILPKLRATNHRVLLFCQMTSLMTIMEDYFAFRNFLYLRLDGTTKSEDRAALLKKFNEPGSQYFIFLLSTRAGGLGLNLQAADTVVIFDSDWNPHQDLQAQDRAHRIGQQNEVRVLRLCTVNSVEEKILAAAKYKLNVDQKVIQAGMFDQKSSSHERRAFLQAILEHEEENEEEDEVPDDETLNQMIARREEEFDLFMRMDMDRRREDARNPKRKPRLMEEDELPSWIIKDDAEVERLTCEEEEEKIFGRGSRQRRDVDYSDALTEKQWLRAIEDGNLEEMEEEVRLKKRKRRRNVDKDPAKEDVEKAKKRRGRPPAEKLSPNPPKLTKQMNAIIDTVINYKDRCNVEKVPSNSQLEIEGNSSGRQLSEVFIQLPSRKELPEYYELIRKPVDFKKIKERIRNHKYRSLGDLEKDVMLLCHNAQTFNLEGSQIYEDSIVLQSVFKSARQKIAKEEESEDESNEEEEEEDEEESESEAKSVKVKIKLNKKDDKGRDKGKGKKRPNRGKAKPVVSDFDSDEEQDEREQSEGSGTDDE
SMARCA4, sequence (P51532 whole entry, the tested form may be a part): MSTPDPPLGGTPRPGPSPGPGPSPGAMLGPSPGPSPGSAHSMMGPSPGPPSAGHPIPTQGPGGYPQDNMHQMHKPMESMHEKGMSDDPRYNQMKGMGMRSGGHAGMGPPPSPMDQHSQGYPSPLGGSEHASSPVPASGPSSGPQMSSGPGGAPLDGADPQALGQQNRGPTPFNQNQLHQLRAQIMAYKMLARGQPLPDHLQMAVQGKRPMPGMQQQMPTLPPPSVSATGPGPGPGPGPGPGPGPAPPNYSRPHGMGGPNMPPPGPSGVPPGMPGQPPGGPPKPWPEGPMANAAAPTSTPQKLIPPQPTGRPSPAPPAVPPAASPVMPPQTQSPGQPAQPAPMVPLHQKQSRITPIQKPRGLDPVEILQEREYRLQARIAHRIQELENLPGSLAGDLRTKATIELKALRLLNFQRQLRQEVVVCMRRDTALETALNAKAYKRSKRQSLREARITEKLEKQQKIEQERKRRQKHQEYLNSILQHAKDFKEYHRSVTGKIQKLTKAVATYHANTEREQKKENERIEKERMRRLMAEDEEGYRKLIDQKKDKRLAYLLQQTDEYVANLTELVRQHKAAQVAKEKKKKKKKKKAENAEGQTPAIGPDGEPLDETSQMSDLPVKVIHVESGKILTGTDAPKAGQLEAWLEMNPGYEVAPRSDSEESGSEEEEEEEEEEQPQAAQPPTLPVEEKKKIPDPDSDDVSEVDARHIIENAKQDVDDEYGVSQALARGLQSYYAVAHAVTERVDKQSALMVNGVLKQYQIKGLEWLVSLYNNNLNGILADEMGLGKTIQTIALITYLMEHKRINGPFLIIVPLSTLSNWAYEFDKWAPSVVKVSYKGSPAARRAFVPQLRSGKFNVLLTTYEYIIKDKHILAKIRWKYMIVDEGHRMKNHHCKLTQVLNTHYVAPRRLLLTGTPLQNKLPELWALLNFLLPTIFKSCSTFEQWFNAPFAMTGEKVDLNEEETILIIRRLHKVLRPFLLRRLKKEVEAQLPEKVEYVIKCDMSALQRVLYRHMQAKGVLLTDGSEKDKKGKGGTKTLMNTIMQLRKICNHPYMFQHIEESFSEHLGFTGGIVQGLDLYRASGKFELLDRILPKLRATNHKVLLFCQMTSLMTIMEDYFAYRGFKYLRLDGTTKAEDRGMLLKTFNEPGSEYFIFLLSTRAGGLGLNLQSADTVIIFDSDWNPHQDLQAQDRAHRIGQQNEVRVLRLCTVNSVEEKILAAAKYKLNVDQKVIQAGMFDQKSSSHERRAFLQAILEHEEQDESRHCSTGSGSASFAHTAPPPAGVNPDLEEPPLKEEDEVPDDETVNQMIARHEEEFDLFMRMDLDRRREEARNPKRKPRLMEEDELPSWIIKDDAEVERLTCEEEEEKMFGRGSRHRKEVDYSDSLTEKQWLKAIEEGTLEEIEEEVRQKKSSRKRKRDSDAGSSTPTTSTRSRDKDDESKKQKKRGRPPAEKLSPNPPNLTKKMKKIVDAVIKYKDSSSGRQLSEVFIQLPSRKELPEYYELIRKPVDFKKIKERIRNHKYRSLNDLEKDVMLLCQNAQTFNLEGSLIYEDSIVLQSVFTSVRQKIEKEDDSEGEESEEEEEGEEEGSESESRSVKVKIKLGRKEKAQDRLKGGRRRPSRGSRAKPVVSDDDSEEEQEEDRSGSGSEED

For `Cc1ncsc1-c1ccc([C@H](CN2CCOCC2)NC(=O)[C@@H]2C[C@@H](O)CN2C(=O)[C@@H](NC(=O)C23CCC(CN4CCC(c5ccc6c(c5)-n5c(nc(=O)c7c(Br)cccc75)C65CCCCC5)CC4)(CC2)C3)C(C)(C)C)cc1` [Compound A24, (2S,4R)-1-((S)-2-(4-((4-(4′-bromo-5′-oxo-5′H-spiro[cyclohexane-1,7′-indolo[1,2-a]quinazolin]-10′-yl)piperidin-1-yl)methyl)bicyclo[2.2.1]heptane-1-carboxamido)-3,3-dimethylbutanoyl)-4-hydroxy-N—((R)-1-(4-(4-methylthiazol-5-yl)phenyl)-2-morpholinoethyl)pyrrolidine-2-carboxamide], at SMARCA4 (setting [1]), the “SMARC A4 Hela HiBit Dmax(%)” value is “B (B (70-90% degradation))”. Also, the DC50 is 100 to 500 nM at SMARCA4 and less than 100 nM on SMARCA2. The “SMARC A2 Hela HiBit Dmax (%)” value at SMARCA2 (setting [2]) is listed as “A (A (>90% degradation))”.

Regarding `COCCOCCOCCOC[C@H](NC(=O)[C@@H]1C[C@@H](O)CN1C(=O)[C@@H](n1cc([C@H]2CC[C@H](CN3CCC(c4ccc5c(c4)-n4c(nc(=O)c6c(Cl)cccc64)C54CCCCC4)CC3)CC2)nn1)C(C)(C)C)c1ccc(-c2scnc2C)cc1` [Compound A148, (2S,4R)-1-((S)-2-(4-((1r,4S)-4-((4-(4′-chloro-5′-oxo-5′H-spiro[cyclohexane-1,7′-indolo[1,2-a]quinazolin]-10′-yl)piperidin-1-yl)methyl)cyclohexyl)-1H-1,2,3-triazol-1-yl)-3,3-dimethylbutanoyl)-4-hydroxy-N—((R)-13-(4-(4-methylthiazol-5-yl)phenyl)-2,5,8,11-tetraoxatridecan-13-yl)pyrrolidine-2-carboxamide], the DC50 is more than 1000 nM at SMARCA4 (setting [1]) and less than 10 nM on SMARCA2 (setting [2]). For the same molecule, the figures for the Dmax at SMARCA4 (setting [3]) and at SMARCA2 (setting [2]) were 50 to 69% and more than 90%, respectively.

As for `Cc1ncsc1-c1ccc([C@H](C)NC(=O)[C@@H]2C[C@@H](O)CN2C(=O)[C@@H](n2cc(CCCCCCN3CCC(c4ccc5c(c4)C4(CCCCC4)c4nc(=O)c6c(Br)cccc6n4-5)CC3)nn2)C(C)(C)C)cc1` [Compound A58, (2S,4R)-1-((S)-2-(4-(6-(4-(4′-bromo-5′-oxo-5′H-spiro[cyclohexane-1,7′-indolo[1,2-a]quinazolin]-9′-yl)piperidin-1-yl)hexyl)-1H-1,2,3-triazol-1-yl)-3,3-dimethylbutanoyl)-4-hydroxy-N—((S)-1-(4-(4-methylthiazol-5-yl)phenyl)ethyl)pyrrolidine-2-carboxamide], the DC50 on SMARCA4 (setting [1]) and at SMARCA2 (setting [2]) was less than 100 nM each time. Also, the Dmax on SMARCA4 (setting [4]) and at SMARCA2 (setting [2]) was more than 90% each time.

In the case of `Cc1ncsc1-c1ccc([C@H](C)NC(=O)[C@@H]2C[C@@H](O)CN2C(=O)[C@@H](NC(=O)CCCCCN2CCC(c3ccc4c(c3)C3(CCCCC3)c3nc(=O)c5c(Cl)cccc5n3-4)CC2)C(C)(C)C)cc1` [Compound A9, (2S,4R)-1-((S)-2-(6-(4-(4′-chloro-5′-oxo-5′H-spiro[cyclohexane-1,7′-indolo[1,2-a]quinazolin]-9′-yl)piperidin-1-yl)hexanamido)-3,3-dimethylbutanoyl)-4-hydroxy-N—((S)-1-(4-(4-methylthiazol-5-yl)phenyl)ethyl) pyrrolidine-2-carboxamide], the maximal degradation (Dmax) on SMARCA4 (HeLa, read-out: SMARC A4 Hela HiBit Dmax(%)) was 50 to 69%; on SMARCA2 (HeLa), more than 90%. Moreover, the results for the half-maximal degradation concentration (DC50) at SMARCA4 (setting [1]) and on SMARCA2 (setting [2]) were 501 to 1000 nM and less than 100 nM, respectively.

`Cc1ncsc1-c1ccc([C@H](C)NC(=O)[C@@H]2C[C@@H](O)CN2C(=O)[C@@H](n2cc([C@H]3CC[C@H](CN4CCC(c5ccc6c(c5)C5(CCCCC5)c5nc(=O)c7c(Br)cccc7n5-6)CC4)CC3)nn2)C(C)(C)C)cc1` [Compound A60, (2S,4R)-1-((S)-2-(4-((1r,4S)-4-((4-(4′-bromo-5′-oxo-5′H-spiro[cyclohexane-1,7′-indolo[1,2-a]quinazolin]-9′-yl)piperidin-1-yl)methyl)cyclohexyl)-1H-1,2,3-triazol-1-yl)-3,3-dimethylbutanoyl)-4-hydroxy-N—((S)-1-(4-(4-methylthiazol-5-yl)phenyl)ethyl)pyrrolidine-2-carboxamide]: the DC50 at SMARCA4 is less than 100 nM. Further, on SMARCA2, the “SMARC A2 Hela HiBit Dmax (%)” value is “A (key: A (>90% degradation); B (70-90% degradation); C (50-69% degradation); D (<50% degradation))” and the half-maximal degradation concentration (DC50) was less than 100 nM.

In the case of `Cc1ncsc1-c1ccc([C@H](CN2CCOCC2)NC(=O)[C@@H]2C[C@@H](O)CN2C(=O)[C@@H](NC(=O)[C@H]2CC[C@H](CN3CCC(c4ccc5c(c4)C4(CCCCC4)c4nc(=O)c6c(Br)cccc6n4-5)CC3)CC2)C(C)(C)C)cc1` [Compound A16, (2S,4R)-1-((S)-2-((1r,4S)-4-((4-(4′-bromo-5′-oxo-5′H-spiro[cyclohexane-1,7′-indolo[1,2-a]quinazolin]-9′-yl)piperidin-1-yl)methyl)cyclohexane-1-carboxamido)-3,3-dimethylbutanoyl)-4-hydroxy-N—((R)-1-(4-(4-methylthiazol-5-yl)phenyl)-2-morpholinoethyl)pyrrolidine-2-carboxamide], the DC50 on SMARCA4 (setting [1]) is 501 to 1000 nM; on SMARCA2 (setting [2]), less than 100 nM. Moreover, the Dmax on SMARCA4 (setting [4]) was 50 to 69%; on SMARCA2 (setting [2]), more than 90%.

For the molecule `Cc1ncsc1-c1ccc([C@H](CCCCCN2CCC(c3ccc4c(c3)-n3c(nc(=O)c5c(Br)cccc53)C43CCCCC3)CC2)NC(=O)[C@H]2C[C@H](O)CN2C(=O)[C@@H](n2cc(C3CC3)nn2)C(C)(C)C)cc1` [Compound A36, (2R,4S)—N—((S)-6-(4-(4′-bromo-5′-oxo-5′H-spiro[cyclohexane-1,7′-indolo[1,2-a]quinazolin]-10′-yl)piperidin-1-yl)-1-(4-(4-methylthiazol-5-yl)phenyl)hexyl)-1-((S)-2-(4-cyclopropyl-1H-1,2,3-triazol-1-yl)-3,3-dimethylbutanoyl)-4-hydroxypyrrolidine-2-carboxamide], the 50% degradation concentration (DC50) at SMARCA4 (setting [1]) and on SMARCA2 (setting [2]) was less than 100 nM each time. Besides, the Dmax at SMARCA4 (setting [4]) and at SMARCA2 (setting [2]) was more than 90% throughout.

As for `Cc1ncsc1-c1ccc([C@H](CCCCN2CCC(c3ccc4c(c3)-n3c(nc(=O)c5c(Cl)cccc53)C43CCOCC3)CC2)NC(=O)[C@@H]2C[C@@H](O)CN2C(=O)[C@@H](NC(=O)C2(F)CC2)C(C)(C)C)cc1` [Compound A10, (2S,4R)—N—((S)-5-(4-(4-chloro-5-oxo-2′,3′,5′,6′-tetrahydro-5H-spiro[indolo[1,2-a]quinazoline-7,4′-pyran]-10-yl)piperidin-1-yl)-1-(4-(4-methylthiazol-5-yl)phenyl)pentyl)-1-((S)-2-(1-fluorocyclopropane-1-carboxamido)-3,3-dimethylbutanoyl)-4-hydroxypyrrolidine-2-carboxamide], the “SMARC A4 Hela HiBit DC50(nM)” value at SMARCA4 (setting [1]) is on record as “No fit”. Also, the maximal degradation (Dmax) at SMARCA4 (setting [4]) is less than 50%; on SMARCA2 (setting [2]), 50 to 69%. In addition, the 50% degradation concentration (DC50) on SMARCA2 (setting [2]) lay within 501 to 1000 nM.

On to `COCCOCCOCCOC[C@H](NC(=O)[C@@H]1C[C@@H](O)CN1C(=O)[C@@H](n1cc([C@H]2CC[C@H](CN3CCC(c4ccc5c(c4)-n4c(nc(=O)c6c(Cl)cccc64)C5(C)C)CC3)CC2)nn1)C(C)(C)C)c1ccc(-c2scnc2C)cc1` [Compound A150, (2S,4R)-1-((S)-2-(4-((1r,4S)-4-((4-(4-chloro-7,7-dimethyl-5-oxo-5,7-dihydroindolo[1,2-a]quinazolin-10-yl)piperidin-1-yl)methyl)cyclohexyl)-1H-1,2,3-triazol-1-yl)-3,3-dimethylbutanoyl)-4-hydroxy-N—((R)-13-(4-(4-methylthiazol-5-yl)phenyl)-2,5,8,11-tetraoxatridecan-13-yl)pyrrolidine-2-carboxamide], for which the values for the 50% degradation concentration (DC50) at SMARCA4 (setting [1]) and on SMARCA2 (setting [2]) were more than 1000 nM and less than 10 nM, respectively. Besides, the Dmax was less than 50% at SMARCA4 (setting [3]) and more than 90% at SMARCA2 (setting [2]).

Consider `Cc1ncsc1-c1ccc([C@@H](NC(=O)[C@@H]2C[C@@H](O)CN2C(=O)[C@@H](n2cc(C3CC3)nn2)C(C)(C)C)C(=O)N2CCC3(CCC(N4CCC(c5ccc6c(c5)-n5c(nc(=O)c7c(Br)cccc75)C65CCCCC5)CC4)CC3)CC2)cc1` [Compound A139, (2S,4R)—N—((R)-2-(9-(4-(4′-bromo-5′-oxo-5′H-spiro[cyclohexane-1,7′-indolo[1,2-a]quinazolin]-10′-yl)piperidin-1-yl)-3-azaspiro[5.5]undecan-3-yl)-1-(4-(4-methylthiazol-5-yl)phenyl)-2-oxoethyl)-1-((S)-2-(4-cyclopropyl-1H-1,2,3-triazol-1-yl)-3,3-dimethylbutanoyl)-4-hydroxypyrrolidine-2-carboxamide], for which the DC50 on SMARCA4 (setting [1]) and at SMARCA2 (setting [2]) was less than 10 nM throughout. For the same molecule, the results for the Dmax on SMARCA4 (setting [3]) and at SMARCA2 (setting [2]) were 70 to 90% and more than 90%, respectively.
